Data taken from patent US12331026B2 (NiKang Therapeutics, Inc., priority 2022, dated 2025).

Biological target: T1, CDK2 (Homo sapiens, UniProt P24941)
T1 construct: endogenous in cells; host or cells: OVCAR3 cells
Test: Phospho-RB measurement in OVCAR3 cells (HTRF phospho-RB S807/811)
Assay type: cell-based
Conditions: phosphorylation of RB protein at S807/811, HTRF, 24 h compound treatment, 0.3 to 10,000 nM, read-out: pRb (uM)
Protocol: The ability of compounds of Formula (I) to inhibit CDK2 was determined in OVCAR3 cells. Phosphorylation of RB protein at S807/811 were measured using HTRF phospho-RB cellular kits (Cat #64RBS807PEG) from Cisbio.
On Day 1, OVCAR3 cells were seeded into 96-well tissue-culture treated plates at 20,000 cells/well in 200 μL and incubated overnight at 37° C. in CO2 atmosphere. On Day 2, the cells were treated with test compounds at concentrations from 0.3 to 10,000 nM using HP D300 digital dispenser. Twenty-four hours after compound treatment, cell culture media was removed by flicking the plate and tapping the plate against clean paper towel. Immediately 30 μL 1× lysis buffer was supplemented from the kit and the plate was incubated at room temperature on shaker for 30 min. After homogenization by pipetting up and down, 8 μL cell lysate from 96-well cell culture plate was transferred to 384-well small volume white detection plate. 2 μL premixed detection solution was added and the plate was covered with sealer. To prepare the detection solution, d2 conjugated-phospho-RB antibody and Eu-cryptate conjugated phosphor-RB antibody were diluted into detection buffer following manufacturer's instruction.
Detection plates were incubated for 4 h at room temperature and read on ClarioStar (BMG Labtech) in TR-FRET mode ([…]). The TR-FRET ratio (665 nM1/620 nM) was plotted against the compound concentration and normalized to DMSO controls. Half maximal inhibition concentration (IC50) values are calculated with a four-parameter logistic fit using GraphPad Prism (version 8; La Jolla, CA).

Row | IC50 [µM] | SMILES
1 | 0.46 | O=S1(=O)CC2(CC(Nc3nccc(-c4sc(N5C6CCC5CN(c5ccccn5)C6)nc4-c4cccc(NS(=O)(=O)c5c(F)cccc5F)c4F)n3)C2)C1 [Example 43, N-(3-(5-(2-((2,2-dioxido-2-thiaspiro[3.3]heptan-6-yl)amino)-pyrimidin-4-yl)-2-(3-(pyridin-2-yl)-3,8-diazabicyclo[3.2.1]octan-8-yl)thiazol-4-yl)-2-fluorophenyl)-2,6-difluorobenzenesulfonamide]
2 | 0.66 | O=S1(=O)CC2(CC(Nc3nccc(-c4sc(N5C6CCC5CN(C5CCOC5)C6)nc4-c4cccc(NS(=O)(=O)c5c(F)cccc5F)c4F)n3)C2)C1 (stereo not shown) [Example 44, N-(3-(5-(2-((2,2-dioxido-2-thiaspiro[3.3]heptan-6-yl)amino)-pyrimidin-4-yl)-2-(3-(tetrahydrofuran-3-yl)-3,8-diazabicyclo-[3.2.1]octan-8-yl)thiazol-4-yl)-2-fluorophenyl)-2,6-difluoro-benzenesulfonamide]
3 | 4.14 | O=S1(=O)CC(N2CC3CCC(C2)N3c2nc(-c3cccc(NS(=O)(=O)c4c(F)cccc4F)c3F)c(-c3ccnc(NC4CC5(C4)CS(=O)(=O)C5)n3)s2)C1 [Example 45, N-(3-(5-(2-((2,2-dioxido-2-thiaspiro[3.3]heptan-6-yl)amino)-pyrimidin-4-yl)-2-(3-(1,1-dioxidothietan-3-yl)-3,8-diazabicyclo[3.2.1]octan-8-yl)thiazol-4-yl)-2-fluorophenyl)-2,6-difluorobenzenesulfonamide]
4 | 1.36 | CC1(O)CC(N2CC3CCC(C2)N3c2nc(-c3cccc(NS(=O)(=O)c4c(F)cccc4F)c3F)c(-c3ccnc(NC4CC5(C4)CS(=O)(=O)C5)n3)s2)C1 (stereo not shown) [Example 46, N-(3-(5-(2-((2,2-dioxido-2-thiaspiro[3.3]heptan-6-yl)amino)-pyrimidin-4-yl)-2-(3-(3-hydroxy-3-methylcyclobutyl)-3,8-diazabicyclo[3.2.1]octan-8-yl)thiazol-4-yl)-2-fluorophenyl)-2,6-difluorobenzenesulfonamide]
5 | 0.05 | O=S1(=O)CC2(CC(Nc3nccc(-c4sc(C56CC(C5)C6)nc4-c4cccc(NS(=O)(=O)c5c(F)cccc5C(F)F)c4F)n3)C2)C1 [Example 47, N-(3-(2-(bicyclo[1.1.1]pentan-1-yl)-5-(2-((2,2-dioxido-2-thiaspiro[3.3]heptan-6-yl)amino)pyrimidin-4-yl)thiazol-4-yl)-2-fluorophenyl)-2-(difluoromethyl)-6-fluorobenzenesulfonamide]
6 | 7.13 | O=S1(=O)CC2CCC(C1)N2c1nc(-c2cccc(NS(=O)(=O)c3c(F)cccc3F)c2F)c(-c2ccnc(NC3CC4(C3)CS(=O)(=O)C4)n2)s1 [Example 48, N-(3-(5-(2-((2,2-dioxido-2-thiaspiro[3.3]heptan-6-yl)amino)-pyrimidin-4-yl)-2-(3,3-dioxido-3-thia-8-azabicyclo[3.2.1]octan-8-yl)thiazol-4-yl)-2-fluorophenyl)-2,6-difluorobenzenesulfonamide]
7 | 1.13 | CC1(C#N)CC(N2CC3CCC(C2)N3c2nc(-c3cccc(NS(=O)(=O)c4c(F)cccc4F)c3F)c(-c3ccnc(NC4CC5(C4)CS(=O)(=O)C5)n3)s2)C1 (stereo not shown) [Example 49, N-(3-(2-(3-(3-cyano-3-methylcyclobutyl)-3,8-diazabicyclo-[3.2.1]octan-8-yl)-5-(2-((2,2-dioxido-2-thiaspiro[3.3]heptan-6-yl)amino)pyrimidin-4-yl)thiazol-4-yl)-2-fluorophenyl)-2,6-difluorobenzenesulfonamide]
8 | 0.19 | O=S1(=O)CC2(CC(Nc3nccc(-c4sc(N5C6CCC5CN(C5CC(F)(F)C5)C6)nc4-c4cccc(NS(=O)(=O)c5c(F)cccc5C(F)F)c4F)n3)C2)C1 [Example 50, N-(3-(2-(3-(3,3-difluorocyclobutyl)-3,8-diazabicyclo[3.2.1]octan-8-yl)-5-(2-((2,2-dioxido-2-thiaspiro[3.3]heptan-6-yl)amino)pyrimidin-4-yl)thiazol-4-yl)-2-fluorophenyl)-2-(difluoromethyl)-6-fluorobenzenesulfonamide]
9 | 0.04 | CN1CC2CCC(C1)N2c1nc(-c2cccc(NS(=O)(=O)c3c(F)cccc3C(F)(F)F)c2F)c(-c2ccnc(NC3CC4(C3)CS(=O)(=O)C4)n2)s1 [Example 51, N-(3-(5-(2-((2,2-dioxido-2-thiaspiro[3.3]heptan-6-yl)amino)-pyrimidin-4-yl)-2-(3-methyl-3,8-diazabicyclo[3.2.1]octan-8-yl)thiazol-4-yl)-2-fluorophenyl)-2-fluoro-6-(trifluoromethyl)-benzenesulfonamide]
10 | 0.08 | O=S1(=O)CC2(CC(Nc3nccc(-c4sc(N5C6CCC5CN(C5CCC5)C6)nc4-c4cccc(NS(=O)(=O)c5c(F)cccc5F)c4F)n3)C2)C1 [Example 52, N-(3-(2-(3-cyclobutyl-3,8-diazabicyclo[3.2.1]octan-8-yl)-5-(2-((2,2-dioxido-2-thiaspiro[3.3]heptan-6-yl)amino)pyrimidin-4-yl)thiazol-4-yl)-2-fluorophenyl)-2,6-difluorobenzenesulfonamide]
11 | 0.04 | CC1CN(C)CC(C)N1c1nc(-c2cccc(NS(=O)(=O)c3c(F)cccc3F)c2F)c(-c2ccnc(NC3CC4(C3)CS(=O)(=O)C4)n2)s1 (stereo not shown) [Example 53, N-(3-(5-(2-((2,2-dioxido-2-thiaspiro[3.3]heptan-6-yl)amino)-pyrimidin-4-yl)-2-(2,4,6-trimethylpiperazin-1-yl)thiazol-4-yl)-2-fluorophenyl)-2,6-difluorobenzenesulfonamide]
12 | 0.2 | N#CC12CCC(CC1)N2c1nc(-c2cccc(NS(=O)(=O)c3c(F)cccc3F)c2F)c(-c2ccnc(NC3CC4(C3)CS(=O)(=O)C4)n2)s1 [Example 54, N-(3-(2-(1-cyano-7-azabicyclo[2.2.1]heptan-7-yl)-5-(2-((2,2-dioxido-2-thiaspiro[3.3]heptan-6-yl)amino)pyrimidin-4-yl)thiazol-4-yl)-2-fluorophenyl)-2,6-difluorobenzenesulfonamide]
13 | 1.35 | COc1cccc(F)c1S(=O)(=O)Nc1cccc(-c2nc(C34CC(C3)C4)sc2-c2ccnc(NC3CC4(C3)CS(=O)(=O)C4)n2)c1F [Example 55, N-(3-(2-(bicyclo[1.1.1]pentan-1-yl)-5-(2-((2,2-dioxido-2-thiaspiro[3.3]heptan-6-yl)amino)pyrimidin-4-yl)thiazol-4-yl)-2-fluorophenyl)-2-fluoro-6-methoxybenzenesulfonamide]
14 | 0.11 | C[C@@H]1COC[C@@H](C)N1c1nc(-c2cccc(NS(=O)(=O)c3c(F)cccc3F)c2F)c(-c2ccnc(NC3CC4(C3)CS(=O)(=O)C4)n2)s1 [Example 56, N-(3-(2-((3R,5R)-3,5-dimethylmorpholino)-5-(2-((2,2-dioxido-2-thiaspiro[3.3]heptan-6-yl)amino)pyrimidin-4-yl)thiazol-4-yl)-2-fluorophenyl)-2,6-difluorobenzenesulfonamide]
15 | 0.6 | COc1cccc(F)c1S(=O)(=O)Nc1cccc(-c2nc(N3C4CCC3CN(C)C4)sc2-c2ccnc(NC3CC4(C3)CS(=O)(=O)C4)n2)c1F [Example 57, N-(3-(5-(2-((2,2-dioxido-2-thiaspiro[3.3]heptan-6-yl)amino)-pyrimidin-4-yl)-2-(3-methyl-3,8-diazabicyclo[3.2.1]octan-8-yl)thiazol-4-yl)-2-fluorophenyl)-2-fluoro-6-methoxybenzenesulfonamide]
16 | 0.09 | O=S1(=O)CC2(CC(Nc3nccc(-c4sc(C56CC(C5)C6)nc4-c4cccc(NS(=O)(=O)c5c(F)cccc5OC(F)F)c4F)n3)C2)C1 [Example 58, N-(3-(2-(bicyclo[1.1.1]pentan-1-yl)-5-(2-((2,2-dioxido-2-thiaspiro[3.3]heptan-6-yl)amino)pyrimidin-4-yl)thiazol-4-yl)-2-fluorophenyl)-2-(difluoromethoxy)-6-fluorobenzenesulfonamide]
17 | 3.01 | C[C@@H]1CNC[C@@H](C)N1c1nc(-c2cccc(NS(=O)(=O)c3c(F)cccc3F)c2F)c(-c2ccnc(NC3CC4(C3)CS(=O)(=O)C4)n2)s1 [Example 59, N-(3-(2-((2R,6R)-2,6-dimethylpiperazin-1-yl)-5-(2-((2,2-dioxido-2-thiaspiro[3.3]heptan-6-yl)amino)pyrimidin-4-yl)thiazol-4-yl)-2-fluorophenyl)-2,6-difluorobenzenesulfonamide]
18 | 0.9 | C[C@@H]1CN(C)C[C@@H](C)N1c1nc(-c2cccc(NS(=O)(=O)c3c(F)cccc3F)c2F)c(-c2ccnc(NC3CC4(C3)CS(=O)(=O)C4)n2)s1 [Example 60, N-(3-(5-(2-((2,2-dioxido-2-thiaspiro[3.3]heptan-6-yl)amino)-pyrimidin-4-yl)-2-((2R,6R)-2,4,6-trimethylpiperazin-1-yl)thiazol-4-yl)-2-fluorophenyl)-2,6-difluorobenzenesulfonamide]
19 | 0.34 | C[C@@H]1CN(C2CC(F)(F)C2)C[C@@H](C)N1c1nc(-c2cccc(NS(=O)(=O)c3c(F)cccc3F)c2F)c(-c2ccnc(NC3CC4(C3)CS(=O)(=O)C4)n2)s1 [Example 61, N-(3-(2-((2R,6R)-4-(3,3-difluorocyclobutyl)-2,6-dimethylpiperazin-1-yl)-5-(2-((2,2-dioxido-2-thiaspiro[3.3]heptan-6-yl)amino)-pyrimidin-4-yl)thiazol-4-yl)-2-fluorophenyl)-2,6-difluoro-benzenesulfonamide]
